From patent US8415359B2, “Phenylpyrrole derivative” (Daiichi Sankyo Company, Limited, priority 2008, dated 2013)

Target: T1, human pancreatic GK (human glucokinase variant 1, GST-fused protein) (Homo sapiens, UniProt P35557)
T1 construct: made in house; host or cells: Escherichia coli (such as BL21 or JM109)
T1 sequence (P35557 1-465): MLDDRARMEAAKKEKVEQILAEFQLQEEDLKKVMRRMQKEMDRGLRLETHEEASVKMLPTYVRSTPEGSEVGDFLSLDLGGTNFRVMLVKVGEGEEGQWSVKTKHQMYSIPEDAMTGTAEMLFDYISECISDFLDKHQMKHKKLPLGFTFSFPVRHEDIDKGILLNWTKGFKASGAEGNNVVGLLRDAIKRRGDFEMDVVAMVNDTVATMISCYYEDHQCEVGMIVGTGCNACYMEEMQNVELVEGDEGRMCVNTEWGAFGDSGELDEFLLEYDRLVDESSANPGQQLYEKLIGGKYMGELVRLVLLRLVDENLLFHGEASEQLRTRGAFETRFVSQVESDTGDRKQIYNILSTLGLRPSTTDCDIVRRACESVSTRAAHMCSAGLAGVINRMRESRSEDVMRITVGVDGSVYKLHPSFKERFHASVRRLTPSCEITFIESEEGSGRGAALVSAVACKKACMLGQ
Assay: GK activity test (GK activation rate)
Assay type: biochemical
Conditions: test compound 1 μM; glucose 5 mM; 30 min at room temperature; absorbance at 340 nm with test compound / without test compound
Method: cDNA encoding human pancreatic GK polypeptide (GenBank Accession No. NM_000162, human glucokinase variant 1) was cloned from a human cDNA library by polymerase chain reaction (PCR), and introduced into a glutathione S-transferase (GST)-fused protein expression vector (GEX4T, GE Healthcare Bioscience). The vector was introduced into Escherichia coli (such as BL21 or JM109, Invitrogen), and the transformed E. coli was cultured overnight at 37° C. followed by recovery of the cells. After freezing and thawing the recovered cells, the cells were suspended in phosphate buffer containing Triton-X at a final concentration of 1% followed by disrupting the cells with an ultrasonic homogenizer. The supernatant obtained by low-speed centrifugation treatment of the homogenate (10,000×g, 30 minutes) was further subjected to high-speed centrifugation (100,000×g, 10 minutes) followed by recovering the supernatant and purifying the fused protein using a GST fused protein purification system (Bulk GST Purification Module, GE Healthcare Bioscience). The GK fused protein was divided into smaller aliquots and stored at −80° C.
GK activity was measured using the GK purified in (1) above. More specifically, an enzyme solution was prepared by adding the purified GK of (1) above and glucose-6-phosphate dehydrogenase (Sigma) to solution 1 of a glucose assay kit (D-Glucose UV Method, Roche Diagnostics). The enzyme solution, a test compound diluent and glucose (final concentration: 5 mM) were mixed in a 96-well ELISA plate, and allowed to react for 30 minutes at room temperature. Following completion of the reaction, absorbance at a wavelength of 340 nm was measured using SpectraMax Plus (Molecular Probe). Furthermore, unreacted (when glucose was not added) absorbance was used for the background.
GK activation rates were indicated with values represented by the following numerical formula: (absorbance after reacting for 30 minutes when test compound added)/(absorbance after reacting for 30 minutes when test compound not added).

| SMILES | GK Activation Rate |
| --- | --- |
| COC[C@H](C)Oc1cc(Oc2ccc(S(C)(=O)=O)nc2)cc(-c2ccc(C3=N[C@H](CO)[C@H](C)O3)[nH]2)c1 [Example 91, {(4R,5S)-2-[5-(3-[(1S)-2-Methoxy-1-methylethoxy]-5-{[6-(methylsulfonyl)pyridin-3-yl]oxy}phenyl)-1H-pyrrol-2-yl]-5-methyl-4,5-dihydro-1,3-oxazol-4-yl}methanol] | 2.6 |
| COC[C@H](C)Oc1cc(Oc2ccc(C(=O)N3CCC3)cc2F)cc(-c2ccc(C3=NCCO3)[nH]2)c1 [Example 68, 2-(5-{3-[4-(Azetidin-1-ylcarbonyl)-2-fluorophenoxy]-5-[(1S)-2-methoxy-1-methylethoxy]phenyl}-1H-pyrrol-2-yl)-4,5-dihydro-1,3-oxazole] | 2.0 |
| COC[C@H](C)Oc1cc(Oc2ccc(S(C)(=O)=O)cc2)cc(-c2ccc(C3=NC[C@H](CO)O3)[nH]2)c1 [Example 35, [(5R)-2-(5-{3-[(1S)-2-Methoxy-1-methylethoxy]-5-[4-(methylsulfonyl)phenoxy]phenyl}-1H-pyrrol-2-yl)-4,5-dihydro-1,3-oxazol-5-yl]methanol] | 2.1 |
| Cc1nnc(-c2ccc(-c3cc(Oc4ccc(S(C)(=O)=O)nc4)cc(O[C@@H](C)CO)c3)[nH]2)o1 [Example 81, (2S)-2-(3-[5-(5-Methyl-1,3,4-oxadiazol-2-yl)-1H-pyrrol-2-yl]-5-{[6-(methylsulfonyl)pyridin-3-yl]oxy}phenoxy)propan-1-ol] | 2.2 |
| CNS(=O)(=O)c1ccc(Oc2cc(O[C@@H](C)COC)cc(-c3ccc(C4=NC[C@H](CO)O4)[nH]3)c2)cn1 [Example 127, 5-(3-{5-[(5R)-5-(Hydroxymethyl)-4,5-dihydro-1,3-oxazol-2-yl]-1H-pyrrol-2-yl}-5-[(1S)-2-methoxy-1-methylethoxy]phenoxy)-N-methylpyridine-2-sulfonamide] | 2.4 |
| COC[C@H](C)Oc1cc(Oc2ccc(S(C)(=O)=O)cc2)cc(-c2ccc(C3=NCCO3)[nH]2)c1 [Example 20, 2-(5-{3-[(1S)-2-Methoxy-1-methylethoxy]-5-[4-(methylsulfonyl)phenoxy]phenyl}-1H-pyrrol-2-yl)-4,5-dihydro-1,3-oxazole] | 2.0 |
| C[C@H]1CN=C(c2ccc(-c3cc(Oc4cnc(S(C)(=O)=O)cn4)cc(O[C@@H](C)CO)c3)[nH]2)O1 [Example 100, (2S)-2-(3-{5-[(5S)-5-Methyl-4,5-dihydro-1,3-oxazol-2-yl]-1H-pyrrol-2-yl}-5-{[5-(methylsulfonyl)pyrazin-2-yl]oxy}phenoxy)propan-1-ol] | 1.9 |
| COC[C@H](C)Oc1cc(Oc2ncc(C(=O)N3CCC3)cc2Cl)cc(-c2ccc(C3=NC[C@H](C)O3)[nH]2)c1 [Example 74, 5-(Azetidin-1-ylcarbonyl)-3-chloro-2-(3-[(1S)-2-methoxy-1-methylethoxy]-5-{5-[(5S)-5-methyl-4,5-dihydro-1,3-oxazol-2-yl]-1H-pyrrol-2-yl}phenoxy)pyridine] | 2.0 |
| C[C@H]1CN=C(c2ccc(-c3cc(Oc4ncc(C(=O)N5CCC5)cc4Cl)cc(O[C@@H](C)CO)c3)[nH]2)O1 [Example 75, (2S)-2-(3-{[5-(Azetidin-1-ylcarbonyl)-3-chloropyridin-2-yl]oxy}-5-{5-[(5S)-5-methyl-4,5-dihydro-1,3-oxazol-2-yl]-1H-pyrrol-2-yl}phenoxy)propan-1-ol] | 1.8 |
| COC[C@H](C)Oc1cc(Oc2ccc(S(C)(=O)=O)nc2)cc(-c2ccc(C3=N[C@H](C)[C@H](CO)O3)[nH]2)c1 [Example 89, {(4R,5R)-2-[5-(3-[(1S)-2-Methoxy-1-methylethoxy]-5-{[6-(methylsulfonyl)pyridin-3-yl]oxy}phenyl)-1H-pyrrol-2-yl]-4-methyl-4,5-dihydro-1,3-oxazol-5-yl}methanol] | 2.3 |
| COC[C@H](C)Oc1cc(Oc2ccc(S(C)(=O)=O)nc2)cc(-c2ccc(C3=N[C@H](CO)CO3)[nH]2)c1 [Example 86, {(4R)-2-[5-(3-[(1S)-2-Methoxy-1-methylethoxy]-5-{[6-(methylsulfonyl)pyridin-3-yl]oxy}phenyl)-1H-pyrrol-2-yl]-4,5-dihydro-1,3-oxazol-4-yl}methanol] | 2.5 |
| COC[C@H](C)Oc1cc(Oc2ccc(S(C)(=O)=O)nc2)cc(-c2ccc(C3=NC[C@H](C)O3)[nH]2)c1 [Example 76, 5-(3-[(1S)-2-Methoxy-1-methylethoxy]-5-{5-[(5S)-5-methyl-4,5-dihydro-1,3-oxazol-2-yl]-1,4-pyrrol-2-yl}phenoxy)-2-(methylsulfonyl)pyridine] | 3.0 |
| C[C@H]1CN=C(c2ccc(-c3cc(Oc4ccc(C(=O)N5CCC5)cc4F)cc(O[C@@H](C)CO)c3)[nH]2)O1 [Example 70, (2S)-2-(3-[4-(Azetidin-1-ylcarbonyl)-2-fluorophenoxy]-5-{5-[(5S)-5-methyl-4,5-dihydro-1,3-oxazol-2-yl}-1H-pyrrol-2-yl]phenoxy)propan-1-ol] | 1.9 |
| COC[C@H](C)Oc1cc(Oc2ccc(S(C)(=O)=O)cc2)cc(-c2ccc(-c3ncc(C)s3)[nH]2)c1 [Example 3, 2-(5-{3-[(1S)-2-Methoxy-1-methylethoxy]-5-[4-(methylsulfonyl)phenoxy]phenyl}-1H-pyrrol-2-yl)-5-methyl-1,3-thiazole] | 1.9 |
| COC[C@H](C)Oc1cc(Oc2ccc(C(=O)N3CCC3)cc2F)cc(-c2ccc(-c3nccs3)[nH]2)c1 [Example 41, 2-(5-{3-[4-(Azetidin-1-ylcarbonyl)-2-fluorophenoxy]-5-[(1S)-2-methoxy-1-methylethoxy]phenyl}-1H-pyrrol-2-yl)-1,3-thiazole] | 2.1 |
| CNS(=O)(=O)c1ccc(Oc2cc(O[C@@H](C)CO)cc(-c3ccc(C4=NC[C@H](C)O4)[nH]3)c2)cn1 [Example 122, 5-(3-[(1S)-2-Hydroxy-1-methylethoxy]-5-{5-[(5S)-5-methyl-4,5-dihydro-1,3-oxazol-2-yl]-1H-pyrrol-2-yl}phenoxy)-N-methylpyridine-2-sulfonamide] | 2.5 |
| COC[C@H](C)Oc1cc(Oc2ccc(S(C)(=O)=O)cc2)cc(-c2ccc(C3=NC[C@H](C)O3)[nH]2)c1 [Example 31, (5S)-2-(5-{3-[(1S)-2-Methoxy-1-methylethoxy]-5-[4-(methylsulfonyl)phenoxy]phenyl}-1H-pyrrol-2-yl)-5-methyl-4,5-dihydro-1,3-oxazole] | 2.0 |
| C[C@@H](CO)Oc1cc(Oc2ccc(S(C)(=O)=O)cc2)cc(-c2ccc(C3=NCCS3)[nH]2)c1 [Example 26, (2S)-2-{3-[5-(4,5-Dihydro-1,3-thiazol-2-yl)-1H-pyrrol-2-yl]-5-[4-(methylsulfonyl)phenoxy]phenoxy}propan-1-ol] | 2.3 |
| COC[C@H](C)Oc1cc(Oc2ccc(S(C)(=O)=O)nc2)cc(-c2ccc(C3=N[C@H]([C@@H](C)O)CO3)[nH]2)c1 [Example 95, (1R)-1-{(4S)-2-[5-(3-[(1S)-2-Methoxy-1-methylethoxy]-5-{[6-(methylsulfonyl)pyridin-3-yl]oxy}phenyl)-1H-pyrrol-2-yl]-4,5-dihydro-1,3-oxazol-4-yl}ethanol] | 2.5 |
| COC[C@H](C)Oc1cc(Oc2cnc(S(C)(=O)=O)cn2)cc(-c2ccc(C3=NC[C@H](CO)O3)[nH]2)c1 [Example 101, {(5R)-2-[5-(3-[(1S)-2-Methoxy-1-methylethoxy]-5-{[5-(methylsulfonyl)pyrazin-2-yl]oxy}phenyl)-1H-pyrrol-2-yl]-4,5-dihydro-1,3-oxazol-5-yl}methanol] | 1.9 |
| COC[C@H](C)Oc1cc(Oc2ccc(S(C)(=O)=O)cc2)cc(-c2ccc(C(C)=O)[nH]2)c1 [Example 15, 1-(5-{3-[(1S)-2-Methoxy-1-methylethoxy]-5-[4-(methylsulfonyl)phenoxy]phenyl}-1H-pyrrol-2-yl)ethanone] | 1.6 |
| COC[C@H](C)Oc1cc(Oc2cnc(S(C)(=O)=O)cn2)cc(-c2ccc(C3=N[C@H]([C@H](C)O)CO3)[nH]2)c1 [Example 112, (1S)-1-{(4S)-2-[5-(3-{[(25)-1-Methoxypropan-2-yl]oxy}-5-{[5-(methylsulfonyl)pyrazin-2-yl]oxy}phenyl)-1H-pyrrol-2-yl]-4,5-dihydro-1,3-oxazol-4-yl}ethanol] | 2.4 |
